Data set [1] deals with Cholinesterase (Equus caballus) (UniProt P81908). Put plainly: Inhibition of equine BuChE at 10 uM using ACTI as substrate preincubated for 29 mins followed by substrate addition measured at 1 min intervals for 10 mins by Ellman's assay. (DTNB colorimetry detects thiols as they appear.)
Data set [2] has as its target Acetylcholinesterase (Electrophorus electricus) (UniProt O42275). Put plainly: Inhibition of electric eel AChE at 10 uM using ACTI as substrate preincubated for 29 mins followed by substrate addition measured at 1 min intervals for 10 mins by Ellman's assay.
Data set [3] concerns the target Acetylcholinesterase (Homo sapiens) (UniProt P22303). Put plainly: Inhibition of human AChE at 10 uM using ACTI as substrate incubated for 40 mins measured at 1 min intervals for 10 mins by Ellman's assay.
Data set [4] is described as follows: Selectivity ratio of IC50 for equine BuChE to IC50 for human BuChE.
Data set [5] in a line: Stability of compound in crystallization buffer at pH 7.4 at 0.1 mg/mL incubated for 24 hrs by RP-HPLC analysis. It counts as physicochemical. The note with it: pH 7.4, 24 h.
Data set [6] in a line: Stability of compound in crystallization buffer at pH 7.4 at 0.1 mg/mL incubated for 24 hrs by RP-HPLC analysis in presence of equine BuChE. It counts as physicochemical. The conditions noted are these: pH 7.4, 24 h.
Data set [7] in a line: Permeability of compound at 10 uM after 4 hrs by PAMPA. It counts as ADME. The conditions noted are these: read-out: permeability.
In data set [8] the test system is SH-SY5Y. Put plainly: Cytotoxicity against human SH-SY5Y cells at 0.5 to 10 uM after 48 hrs by MTT assay. It counts as cell-based. (In general: Formazan colour is commonly taken as a measure of viable cells.)
Data set [9] concerns the target Cholinesterase (Equus caballus, UniProt P81908).
Description: Inhibition of equine BuChE using ACTI as substrate preincubated for 29 mins followed by substrate addition measured at 1 min intervals for 10 mins by Ellman's assay
Data set [10] deals with Cholinesterase (Homo sapiens, UniProt P06276).
Description: Inhibition of human BuChE using ACTI as substrate incubated for 40 mins measured at 1 min intervals for 10 mins by Ellman's assay

The structures appear in SMILES notation. pIC50: −log10 of the molar value. The source made the active and inactive calls. The rule behind the calls is not given here.

By inhibition is commonly meant the percentage by which the read-out fell short of the control. As a reminder, the pIC50 is the IC50 on a negative log10 scale, so that one unit is a factor of ten. Low values mean a high IC50, high ones a low IC50.

Cholinesterase (Equus caballus, UniProt P81908), sequence (P81908 whole entry): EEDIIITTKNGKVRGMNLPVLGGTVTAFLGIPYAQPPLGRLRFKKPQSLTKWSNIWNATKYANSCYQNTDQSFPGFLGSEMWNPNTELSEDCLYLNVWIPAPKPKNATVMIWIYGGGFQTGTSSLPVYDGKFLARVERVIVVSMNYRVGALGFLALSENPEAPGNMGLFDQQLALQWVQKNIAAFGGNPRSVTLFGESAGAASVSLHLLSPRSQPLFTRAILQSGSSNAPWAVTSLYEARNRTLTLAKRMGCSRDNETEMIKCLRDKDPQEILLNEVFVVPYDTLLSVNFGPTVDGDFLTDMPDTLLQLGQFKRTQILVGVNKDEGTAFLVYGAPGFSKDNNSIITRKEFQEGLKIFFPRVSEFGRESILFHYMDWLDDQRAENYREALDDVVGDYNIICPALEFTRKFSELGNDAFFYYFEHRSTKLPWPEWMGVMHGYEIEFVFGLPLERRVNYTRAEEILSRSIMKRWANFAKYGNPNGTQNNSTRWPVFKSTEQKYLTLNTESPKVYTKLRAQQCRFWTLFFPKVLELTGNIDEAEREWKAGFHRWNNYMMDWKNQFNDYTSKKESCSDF
Cholinesterase (Equus caballus), sequence (P81908 whole entry): as above
Acetylcholinesterase (Electrophorus electricus), sequence (O42275 24-633 limits assumed): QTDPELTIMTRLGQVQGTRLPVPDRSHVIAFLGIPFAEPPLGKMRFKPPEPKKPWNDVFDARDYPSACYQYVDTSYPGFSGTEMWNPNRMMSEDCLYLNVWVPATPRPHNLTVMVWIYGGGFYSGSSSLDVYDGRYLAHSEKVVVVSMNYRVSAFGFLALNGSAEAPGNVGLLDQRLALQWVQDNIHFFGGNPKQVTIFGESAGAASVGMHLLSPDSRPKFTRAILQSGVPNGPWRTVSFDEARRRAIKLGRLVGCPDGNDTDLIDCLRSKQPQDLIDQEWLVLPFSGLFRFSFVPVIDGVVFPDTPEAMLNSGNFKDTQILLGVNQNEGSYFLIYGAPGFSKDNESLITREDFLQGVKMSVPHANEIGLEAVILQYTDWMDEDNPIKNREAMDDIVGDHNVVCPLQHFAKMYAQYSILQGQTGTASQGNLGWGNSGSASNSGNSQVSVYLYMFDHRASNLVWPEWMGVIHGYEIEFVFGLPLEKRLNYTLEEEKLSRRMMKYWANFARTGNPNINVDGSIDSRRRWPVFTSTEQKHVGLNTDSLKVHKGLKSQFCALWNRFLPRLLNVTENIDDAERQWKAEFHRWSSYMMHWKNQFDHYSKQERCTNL
Cholinesterase (Homo sapiens, UniProt P06276), sequence (P06276 whole entry): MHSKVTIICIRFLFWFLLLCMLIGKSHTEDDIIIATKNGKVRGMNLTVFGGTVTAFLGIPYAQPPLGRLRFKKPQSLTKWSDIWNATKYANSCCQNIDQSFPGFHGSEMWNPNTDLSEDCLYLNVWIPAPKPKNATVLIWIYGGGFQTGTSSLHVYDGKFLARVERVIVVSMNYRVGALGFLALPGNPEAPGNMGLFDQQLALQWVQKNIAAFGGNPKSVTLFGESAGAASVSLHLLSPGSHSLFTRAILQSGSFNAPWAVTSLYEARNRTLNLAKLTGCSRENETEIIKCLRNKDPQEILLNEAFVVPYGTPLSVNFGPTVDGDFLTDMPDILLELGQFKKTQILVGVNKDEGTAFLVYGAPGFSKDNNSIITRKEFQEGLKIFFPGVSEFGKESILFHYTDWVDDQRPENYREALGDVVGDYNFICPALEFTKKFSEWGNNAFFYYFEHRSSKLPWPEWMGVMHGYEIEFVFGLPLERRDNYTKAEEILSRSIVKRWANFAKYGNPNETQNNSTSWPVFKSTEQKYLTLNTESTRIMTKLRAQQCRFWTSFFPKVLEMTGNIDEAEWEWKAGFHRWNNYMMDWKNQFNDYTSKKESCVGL
Acetylcholinesterase (Homo sapiens), sequence (P22303 whole entry): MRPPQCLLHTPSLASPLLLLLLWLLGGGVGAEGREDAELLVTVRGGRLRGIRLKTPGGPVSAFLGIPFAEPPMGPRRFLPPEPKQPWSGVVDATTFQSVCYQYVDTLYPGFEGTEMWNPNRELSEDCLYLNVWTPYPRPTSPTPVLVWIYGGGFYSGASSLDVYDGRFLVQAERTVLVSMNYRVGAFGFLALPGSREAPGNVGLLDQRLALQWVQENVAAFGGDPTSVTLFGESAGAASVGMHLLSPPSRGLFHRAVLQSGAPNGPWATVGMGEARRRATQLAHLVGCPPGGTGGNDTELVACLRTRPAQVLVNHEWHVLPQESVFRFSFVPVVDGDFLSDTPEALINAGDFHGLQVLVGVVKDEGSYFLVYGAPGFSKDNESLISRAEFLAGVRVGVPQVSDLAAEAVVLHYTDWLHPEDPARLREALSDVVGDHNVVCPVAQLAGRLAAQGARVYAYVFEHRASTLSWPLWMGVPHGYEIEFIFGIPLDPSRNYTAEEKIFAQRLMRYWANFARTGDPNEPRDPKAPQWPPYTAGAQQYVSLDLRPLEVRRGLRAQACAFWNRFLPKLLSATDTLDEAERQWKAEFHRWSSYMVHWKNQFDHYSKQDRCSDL

In [1], `CCCCOC(=O)C1=C(C)NC2=C(C(=O)CCC2)C1c1ccc2c(c1)c1ccccc1n2CC` (stereo unspecified) yielded an inhibition of 53.7%.
Consider `CN(CC(=O)Nc1ccccc1F)S(=O)(=O)c1ccc2ccccc2c1`, for which the results for the inhibition in data set [1] and in data set [2] were 5.64% and 3.43%, respectively.
On to `O=C(O)[C@H](Cc1c[nH]c2ccccc12)Nc1ncnc2c1oc1ccccc12`, for which the inhibition in data set [1] was determined as 7.18%; in [2], 1.45%.
For `CCn1c2ccccc2c2cc(C3C(C(=O)OC4CCCC4)=C(C)NC4=C3C(=O)CC(C)(C)C4)ccc21` (stereo unspecified), the inhibition in data set [1] turned out to be 2.53%.
With `O=C(CS[C@@H]1CC(=O)N(c2ccccc2)C1=O)Nc1ccccc1F`, the inhibition turned out to be 6.01% in data set [1] and 0.484% in data set [2].
Consider `CCn1c2ccccc2c2cc(C3C(C(=O)OCC4CCCO4)=C(C)NC4=C3C(=O)CCC4)ccc21` (stereo unspecified), for which the inhibition in data set [1] was determined as 84.2%; in [2], 1.73%. The inhibition result in data set [3] was “inactive”. The Ratio IC50 in data set [4] is 2. The Stability result in data set [5] and in [6] was “Stable” throughout. For the same compound, in data set [7], the Papp at 4 h, 10 µM was 2.46 ×10⁻⁶ cm/s. Also, the Activity result in data set [8] is reported as “Non-Toxic”. Moreover, the pIC50 in [9] was 6.12; in data set [10], 6.35.
As for `O=C(Cn1cc(C(=O)C2CC2)c2ccccc21)NCCc1c[nH]c2ccccc12`, the inhibition was 7.28% in data set [1] and 3.44% in data set [2].
In turn, `CCSCCOC(=O)C1=C(C)NC2=C(C(=O)CCC2)C1c1ccc2c(c1)c1ccccc1n2CC` (stereo unspecified) came in with an inhibition in data set [1] of 51.2%.
Turning to `Cc1cc2nc([C@@H]3CCCN3C(=O)[C@H]3C[C@@H](O)CN3Cc3ccccc3)[nH]c2cc1C`, the inhibition in data set [1] is 17.5%. The inhibition result in [2] was “inactive”. The compound also had a pIC50 in data set [9] of 4.33.
As for `CCC(C)OC(=O)C1=C(C)NC2=C(C(=O)CC(C)(C)C2)C1c1ccc2c(c1)c1ccccc1n2CC` (stereo unspecified), the inhibition entry in data set [1] was “inactive”.
As to `CCOC(=O)N1CCN([C@H]2CC(=O)N(c3cccc4ccccc34)C2=O)CC1`, the inhibition in [1] amounted to 1.85%; in data set [2], 4.93%.
The corresponding values for `COc1ccccc1NC(=O)Cn1c(CCC(=O)O)ccc1-c1ccccc1` are 5.54% and 2.2%.
The like results for `CCCCSc1nc2c(c(=O)[nH]c(=O)n2C)n1C[C@@H](O)COc1cccc2ccccc12` were, in that order, 3.69% and 5.34%.
Take `CCn1c2ccccc2c2cc([C@@H]3C(C(=O)OCCOC)=C(C)NC4=C3C(=O)CCC4)ccc21`: the inhibition was determined as 52.7% in [1] and 1.35% in [2]. The pIC50 in data set [9] is 5.01.
Regarding `O[C@H](CN1CCN(c2ccccc2)CC1)c1c[nH]c2ccc(F)cc12`, the inhibition in data set [1] came to 1.31%; in data set [2], 2.69%.
With `Cc1ccccc1-n1nc(C)c(CN(CCN(C)C)Cc2ccccn2)c1C`, the inhibition in data set [1] came to 31.9%; in data set [2], 2.46%. The compound further showed a pIC50 in [9] of 4.72.
On to `CCOCCOC(=O)C1=C(C)NC2=C(C(=O)CC(C)(C)C2)C1c1ccc2c(c1)c1ccccc1n2CC` (stereo unspecified), for which the inhibition in data set [1] was determined as 2.49%.
The same measure, in the same setting: the same measure for `CCn1c2ccccc2c2cc(C3C(C(=O)OC)=C(C)NC4=C3C(=O)CCC4)ccc21` (stereo unspecified): 49.5%.
Take `Cc1cc(C)n(C[C@H](O)CN(Cc2nc3ccccc3[nH]2)Cc2ccco2)n1`: the inhibition in [1] was found to be 6.33%; in data set [2], 2.32%.
As to `Cc1cccc(C2(O)CCN(Cc3c(-c4cccs4)[nH]c4ncccc34)CC2)c1`, the inhibition in [1] stood at 16.2%; in data set [2], 2.14%. Besides, the pIC50 in data set [9] was 4.31.

The values are drawn from ChEMBL document CHEMBL4431320 (J Med Chem, 2016).
